Data taken from patent US20100009956A1, “NOVEL SUBSTITUTED PYRIMIDINES AS CYSTEINE PROTEASE INHIBITORS” (Glaxo Group Limited , a corporation, priority 2006, published 2010).
Where a name gives a salt, the structure may show the parent alone. Read-outs that look alike come from different tables or passages of the source.

What was measured:
Cathepsin S = Cathepsin S (Homo sapiens, UniProt P25774); assay: Cathepsin S enzymatic assay (assay 1); assay type: biochemical; conditions: human recombinant enzyme, KQKLR-AMC substrate, pH 6.5
Experimental: Assay 1) Determination of Falcipain-2, Falcipain-3, Vivapain-2, Cathepsin K Cathepsin S, Cathepsin L, and Cathepsin B Proteolytic Catalytic Activity
Assays for Falcipain-2, Falcipain-3, and Vivapain-2 are carried out with parasitic recombinant enzymes. Cathepsins K, S, L, and B are carried out with human recombinant enzymes. Standard assay conditions for the determination of kinetic constants used a fluorogenic peptide substrate, typically H-D-VLR-AFC (Falcipain-2, Falcipain-3, Vivapain-2), Z-FR-AFC (Cathepsin K, L, B), or KQKLR-AMC (Cathepsin S) and are determined in 100 mM sodium acetate, pH 5.5, containing 10 mM DTT and 0.5 mM CHAPS (Falcipain-2, Falcipain-3, Vivapain-2), and 100 mM sodium acetate, pH 5.5, containing 5 mM L-cysteine, 1 mM CHAPS and 5 mM EDTA (Cathepsin K, L, B), or 50 mM MES, pH 6.5, containing 0.5 mM CHAPS, 10 mM L-CYS, 5 mM EDTA (Cathepsin S). Stock substrate solutions are prepared at 20 mM in DMSO. The activity assays contained 30 uM substrate (Falcipain-2, Falcipain-3, Vivapain-2), 20 uM substrate (Cathepsin K), 25 uM substrate (Cathepsin B), 5 uM substrate (Cathepsin L), and 30 uM substrate (Cathepsin S). All assays contained 1% DMSO. […] All assays are conducted at ambient temperature as end point assays being quenched after 60 minutes with the exception of Cathepsin S at 90 minutes, with 16.6 uM E-64 in 1% DMSO. Product formation (AFC or AMC) is determined from fluorescence (excitation at 405 nm; emission at 530 nm, AFC, or excitation at 360 nm; emission at 460 nm, AMC) monitored with a LJL Aquest (Molecular Devices) fluorescent plate reader. In the case of kinetic reads (used in mechanism of action studies), the reaction is not quenched but is read in the plate reader every 3 minutes for approximately 90 minutes. In addition, the mechanism of action studies for Falcipain-2 utilize Z-LR-AMC as the substrate. Product formation is determined from the fluorescence of AMC, measured with a LJL Acquest (Molecular Devices) fluorescent plate reader (excitation at 360 nm; emission at 460 nm).
Potential inhibitors are evaluated using the quenched read (endpoint) method. Assays are carried out in the presence of variable concentrations of test compound. Reactions are initiated by addition of enzyme and substrate to wells containing inhibitor stamped in 100% DMSO. For endpoint assays, the reaction is quenched with the addition of E64. Dose response data is fit to an IC50 curve with preset fitting tools according to equation 1:
y=a+(b−a)/(1+(10^x/10^c)^d) (1)
where y is the response at a particular inhibitor concentration x, a is the minimum response value, b is the maximum response value, c is the IC50, and d is the slope of the IC50 curve. Assuming the compound is a competitive inhibitor, the apparent KI can be calculated from IC50, as shown in equation 2: […]

[1] = tested on: Plasmodium falciparum parasite; assay: Whole cell assay (assay 2); assay type: cell-based
Text: Assay 2) Determination of Whole Cell Activity Against the Plasmodium falciparum Parasite
Compounds can be evaluated for whole cell actvity against the Plasmodium falciparum parasite according to the procedure described in Sijwali S. and Rosenthal P. J., (2004) Proceedings of the National Academy of Sciences of the United States of America (PNAS) 101 (13), 4384-4389 (see in particular “Measurement of Parasite Growth rates and Inhibitor Sensitivity” on page 4385); IC50 values can be calculated as described in Singh A. and Rosenthal P. J., (2001) Antimicrobial Agents and Chemotherapy 45(3), 949-951 (see in particular page 950, first column); synchronised parasites can be prepared as described in Divo A. A. et al., (1985) Protozool. 32, 59-64.

Falcipain-3 = Falcipain-3 (Plasmodium falciparum, UniProt Q8IIL0); assay: Falcipain-3 enzymatic assay (assay 1); assay type: biochemical
Summary of the method: (§1)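 Recombinant parasite enzyme with 30 uM H-D-VLR-AFC in 100 mM sodium acetate pH 5.5, 10 mM DTT, 0.5 mM CHAPS, 1% DMSO, ambient temperature. Endpoint after 60 minutes, quenched with 16.6 uM E-64; AFC fluorescence (ex 405/em 530). IC50 from four-parameter fit, apparent KI assuming competitive inhibition.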

Cathepsin K = biological target: T1, Cathepsin K (Homo sapiens, UniProt P43235); assay: Cathepsin K enzymatic assay (assay 1); assay type: biochemical; conditions: human recombinant enzyme, Z-FR-AFC substrate, pH 5.5
T1 sequence (P43235 115-329): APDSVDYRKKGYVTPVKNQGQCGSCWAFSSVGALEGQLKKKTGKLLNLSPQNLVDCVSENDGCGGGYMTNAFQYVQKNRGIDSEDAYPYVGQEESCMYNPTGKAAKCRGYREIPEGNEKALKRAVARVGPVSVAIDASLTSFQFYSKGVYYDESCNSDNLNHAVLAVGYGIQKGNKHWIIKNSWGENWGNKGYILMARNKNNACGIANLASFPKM
Summary of the method: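 Human recombinant cathepsin K was assayed with the fluorogenic substrate Z-FR-AFC at 20 uM in 100 mM sodium acetate, pH 5.5, with 5 mM L-cysteine, 1 mM CHAPS, 5 mM EDTA and 1% DMSO. Enzyme plus substrate was added to wells holding inhibitor in DMSO. After 60 minutes at ambient temperature, 16.6 uM E-64 quenched the reaction. AFC fluorescence (excitation 405 nm, emission 530 nm) was read, and IC50 came from a four-parameter dose-response fit.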

Falcipain-2 = Falcipain-2 (Plasmodium falciparum, UniProt Q8I6U4); assay: Falcipain-2 enzymatic assay (assay 1); assay type: biochemical
Summary of the method: as §1

[2] = parasitic recombinant enzyme, H-D-VLR-AFC substrate, pH 5.5, endpoint read, read-out: Falcipain-3 IC50
[3] = parasitic recombinant enzyme, H-D-VLR-AFC substrate, pH 5.5, endpoint read, read-out: Falcipain-2 IC50

Sequence of Falcipain-3 (Q8IIL0 243-492): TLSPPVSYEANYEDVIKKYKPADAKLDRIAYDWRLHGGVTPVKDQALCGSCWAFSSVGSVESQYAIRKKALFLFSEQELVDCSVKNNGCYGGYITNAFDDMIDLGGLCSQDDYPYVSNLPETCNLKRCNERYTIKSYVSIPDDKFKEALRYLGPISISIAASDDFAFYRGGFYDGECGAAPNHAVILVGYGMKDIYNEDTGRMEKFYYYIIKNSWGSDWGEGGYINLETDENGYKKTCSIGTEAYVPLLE
Sequence of Falcipain-2 (Q8I6U4 244-484): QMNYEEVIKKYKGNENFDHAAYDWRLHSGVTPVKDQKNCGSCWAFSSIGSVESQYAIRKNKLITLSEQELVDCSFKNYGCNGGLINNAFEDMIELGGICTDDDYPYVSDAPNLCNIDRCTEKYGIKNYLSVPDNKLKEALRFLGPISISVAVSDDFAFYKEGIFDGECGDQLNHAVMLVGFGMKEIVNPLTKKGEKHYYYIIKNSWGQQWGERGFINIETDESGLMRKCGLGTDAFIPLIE
Sequence of Cathepsin S (P25774 115-331): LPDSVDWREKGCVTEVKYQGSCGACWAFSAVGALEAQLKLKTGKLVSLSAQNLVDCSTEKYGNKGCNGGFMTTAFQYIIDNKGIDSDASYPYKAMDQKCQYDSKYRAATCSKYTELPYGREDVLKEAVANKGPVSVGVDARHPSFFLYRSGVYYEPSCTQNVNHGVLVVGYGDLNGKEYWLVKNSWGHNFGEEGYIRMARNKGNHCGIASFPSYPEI

Compound	IC50 (Cathepsin S) [nM]	IC50 [1] [nM]	IC50 (Falcipain-3; [2]) [nM]	IC50 (Cathepsin K) [nM]	IC50 ([1]; Plasmodium falciparum) [nM]	IC50 (Falcipain-2) [nM]	IC50 (Falcipain-3) [nM]	IC50 (Falcipain-2; [3]) [nM]
CN1CCN(Cc2ccc(C(=O)NN(c3nc(C#N)ncc3Br)C3CCCC3)cc2)CC1 [Example 1A, N′-(5-bromo-2-cyano-4-pyrimidinyl)-N′-cyclopentyl-4-[(4-methyl-1-piperazinyl)methyl]benzohydrazide]	< 1000	2.5 to 15						
CN1CCN(C2CCN(Cc3ccc(C(=O)NN(c4nc(C#N)ncc4Br)C4CCOCC4)cc3)CC2)CC1 [Example 29, N′-(5—Bromo-2-cyano-4-pyrimidinyl)-4-{[4-(4-methyl-1-piperazinyl)-1-piperidinyl]methyl}-N′-(tetrahydro-2H-pyran-4-yl)benzohydrazide trifluoroacetate]			2.5 to 15	< 17	2.5 to 15	< 1		
CN1CCN(C2CCN(Cc3ccc(C(=O)NN(c4nc(C#N)ncc4Cl)C4CCOCC4)cc3)CC2)CC1 [Example 34, N′-(5-Chloro-2-cyano-4-pyrimidinyl)-4-{[4-(4-methyl-1-piperazinyl)-1-piperidinyl]methyl}-N′-(tetrahydro-2H-pyran-4-yl)benzohydrazide trifluoroacetate]				< 17	15 to 150	1 to 2.5	2.5 to 15	
CN1CCN(Cc2ccc(-c3ccc(C(=O)NN(c4nc(C#N)ncc4Br)C4CCCCC4)cn3)cc2)CC1 [Example 44, N′-(5-bromo-2-cyano-4-pyrimidinyl)-N′-cyclohexyl-6-{4-[(4-methyl-1-piperazinyl)methyl]phenyl}-3-pyridinecarbohydrazide trifluoroacetate]	< 200			< 1.5		< 1	2.5 to 15	
CN1CCN(Cc2ccc(-c3ccc(C(=O)NN(c4nc(C#N)ncc4Br)C4CCCC4)cn3)cc2)CC1 [Example 46, N′-(5-bromo-2-cyano-4-pyrimidinyl)-N′-cyclopentyl-6-{4-[(4-methyl-1-piperazinyl)methyl]phenyl}-3-pyridinecarbohydrazide trifluoroacetate]	< 200			< 1.5		< 1	15 to 150	
CN1CCN(Cc2cccc(-c3cncc(C(=O)NN(c4nc(C#N)ncc4Br)C4CCCCC4)c3)c2)CC1 [Example 47, N′-(5-bromo-2-cyano-4-pyrimidinyl)-N′-cyclohexyl-5-{3-[(4-methyl-1-piperazinyl)methyl]phenyl}-3-pyridinecarbohydrazide trifluoroacetate]	< 200			< 1.5		< 1	2.5 to 15	
CC(=O)N1CCC(N(NC(=O)c2ccc(CN3CCC(C(=O)N4CCN(C)CC4)CC3)cc2)c2nc(C#N)ncc2Br)CC1 [Example 49, N′-(1-acetyl-4-piperidinyl)-N′-(5-bromo-2-cyano-4-pyrimidinyl)-4-({4-[(4-methyl-1-piperazinyl)carbonyl]-1-piperidinyl}methyl)benzohydrazide trifluoroacetate]	< 200			< 17		< 1	15 to 150	
CN1CCN(Cc2ccc(C(=O)NN(c3nc(C#N)ncc3Cl)C3CCCC3)cc2)CC1 [Example 50, N′-(5-chloro-2-cyano-4-pyrimidinyl)-N′-cyclopentyl-4-[(4-methyl-1-piperazinyl)methyl]benzohydrazide trifluoroacetate]	< 200			< 1.5			15 to 150	< 1
CN1CCN(Cc2ccc(C(=O)NN(c3nc(C#N)ncc3Cl)C3CCCCC3)cc2)CC1 [Example 51, N′-(5-chloro-2-cyano-4-pyrimidinyl)-N′-cyclohexyl-4-[(4-methyl-1-piperazinyl)methyl]benzohydrazide trifluoroacetate]	< 200			< 1.5		1 to 2.5	15 to 150	
CN1CCN(c2ncc(C(=O)NN(c3nc(C#N)ncc3Cl)C3CCCC3)s2)CC1 [Example 77, N′-(5-chloro-2-cyano-4-pyrimidinyl)-N′-cyclopentyl-2-(4-methyl-1-piperazinyl)-1,3-thiazole-5-carbohydrazide trifluoroacetate]					15 to 150	< 1	15 to 150	
CC(=O)N1CCC(N(NC(=O)OC(C)(C)C)c2nc(C#N)ncc2Br)CC1 [Example 79, 1,1-dimethylethyl 2-(1-acetyl-4-piperidinyl)-2-(5-bromo-2-cyano-4-pyrimidinyl)hydrazinecarboxylate]	< 200		15 to 150		15 to 150	< 1		
CC(C)(C)N(CCO)Cc1ccc(C(=O)NN(c2nc(C#N)ncc2Cl)C2CCCC2)cc1 [Example 82, N′-(5-chloro-2-cyano-4-pyrimidinyl)-N′-cyclopentyl-4-{[(1,1-dimethylethyl)(2-hydroxyethyl)amino]methyl}benzohydrazide trifluoroacetate]					2.5 to 15	< 1	2.5 to 15	
CN(Cc1ccc(C(=O)NN(c2nc(C#N)ncc2Cl)C2CCCC2)cc1)CC1OCCO1 [Example 83, N′-(5-chloro-2-cyano-4-pyrimidinyl)-N′-cyclopentyl-4-{[(1,3-dioxolan-2-ylmethyl)(methyl)amino]methyl}benzohydrazide trifluoroacetate]					150 to 250	< 1	1 to 2.5	
CN(CCN(C)C(=O)OC(C)(C)C)Cc1ccc(C(=O)NN(c2nc(C#N)ncc2Cl)C2CCCC2)cc1 [Example 84, 1,1-dimethylethyl{2-[[(4-{[2-(5-chloro-2-cyano-4-pyrimidinyl)-2-cyclopentylhydrazino]carbonyl}phenyl)methyl](methyl)amino]ethyl}methylcarbamate trifluoroacetate]	< 1000				150 to 250	< 1	2.5 to 15	
N′-(1-acetyl-4-piperidinyl)-N′-(5-bromo-2-cyano-4-pyrimidinyl)-4-[(4-methyl-1-piperazinyl)methyl]benzohydrazide trifluoroacetate [Example 37]		15 to 150	15 to 150					< 1
N′-(5-chloro-2-cyano-4-pyrimidinyl)-N′-cyclopentyl-4-{[methyl(3-methylbutyl)amino]methyl}benzohydrazide trifluoroacetate [Example 63]		2.5 to 15	2.5 to 15					< 1
